target: T1, AUX1 (Arabidopsis thaliana, UniProt Q96247); experiment: inhibition of [3H]IAA uptake in AUX1-expressing HEK293T cells; assay type: cell-based; conditions: about 30 nM [3H]IAA, pH 6.0, 37 °C, 10 min
T1 sequence (Q96247 1-485): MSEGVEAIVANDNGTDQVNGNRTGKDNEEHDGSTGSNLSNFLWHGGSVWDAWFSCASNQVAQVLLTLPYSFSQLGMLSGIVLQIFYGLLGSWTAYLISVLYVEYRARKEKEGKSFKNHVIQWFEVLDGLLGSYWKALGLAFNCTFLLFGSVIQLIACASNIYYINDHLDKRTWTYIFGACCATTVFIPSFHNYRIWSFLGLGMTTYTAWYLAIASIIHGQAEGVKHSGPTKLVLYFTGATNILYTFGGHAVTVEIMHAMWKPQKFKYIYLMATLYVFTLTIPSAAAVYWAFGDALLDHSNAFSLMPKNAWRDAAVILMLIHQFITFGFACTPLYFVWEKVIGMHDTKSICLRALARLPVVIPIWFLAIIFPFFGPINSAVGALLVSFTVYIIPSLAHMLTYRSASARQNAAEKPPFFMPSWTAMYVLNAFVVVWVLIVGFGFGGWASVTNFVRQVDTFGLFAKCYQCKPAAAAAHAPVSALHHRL

Structure (SMILES)	% relative auxin accumulation at 50 μM inhibitor
O=C(O)COc1cccc2ccccc12 [1-NOA, 1-naphthoxyacetic acid]	reduced the uptake of [^3H]IAA in AUX1-expressing HEK293T cells
O=C(O)COc1ccc2ccccc2c1 [2-NOA, 2-naphthoxyacetic acid]	reduced the uptake of [^3H]IAA in AUX1-expressing HEK293T cells
O=C(O)Cc1ccc(O)c(Cl)c1 [CHPAA, 3-chloro-4-hydroxyphenylacetic acid]	reduced the uptake of [^3H]IAA in AUX1-expressing HEK293T cells
